What was measured:
cyclic RGD peptide [1] = assay: STM break-junction measurement, Pd probe and substrate functionalized with cyclic RGD peptide; type: binding; details: for event frequency, of all retractions: 10 nM protein, Vt=0.2V
Procedure: A Pd wire probe, etched to a sharp point and insulated to within a few hundred nm of its apex was used in an Agilent PicoSPM together with a Pd-coated substrate as described elsewhere. […] Probes and substrates were functionalized with cyclic RGD peptide (inset FIG. 14B) as described in Methods. Measurements were carried out in 1 mM phosphate buffer (pH=7.4) with the potential of the substrate controlled at a voltage Vr with respect to an Ag/AgCl reference. […] Integrin itself is electrochemically-inert, but the Pd surface has a rich electrochemistry. Cyclic voltammetry of a Pd surface functionalized with cyclic RGD peptide is shown in FIG. 14B, where a prominent cathodic peak (“HA”) is associated with hydrogen adsorption. […] In order to avoid both this cathodic peak and the onset of Pd oxidation at positive potentials, both electrodes were kept at potentials between 0 and 0.5V vs Ag/AgCl. The STM gap was set to an initial current of 4 pA ([…] conductance at Vt=0.2V, corresponding to a distance, Z0, of about 2 nm) and the probe was then slowly (0.17 nm/s) retracted. The tunnel current decayed rapidly (˜0.2 nm decay length—inset in FIG. 14E) in buffer alone. […] Many current points for αvβ3, exceed 0.1 nA (i.e., conductances >0.5 nS) at distances Z0+ΔZ>3 nm (FIG. 15A). Clearly these currents cannot arise from a tunneling process with β˜0.87 Å^−1 for which G0·e^−βx yields values smaller than 10^−16 S.
Table 1 summarizes the frequency with which these large current pulses are observed in STM measurements, showing also the effect of increasing bias. Large current events are barely seen below 0.1V, their frequency rising with increasing bias above this threshold. The experiments were repeated without a reference electrode, finding essentially identical results over the range of 0.1 to 0.5V (Table 1) presumably because the large-area substrate used in the STM experiments serves to stabilize surface potential somewhat.
The fraction in parenthesis corresponds to events that overflowed the current limit of the amplifier (11 nA). 0.5V bias approaches the potential for surface oxide formation of the Pd, but no significant oxidation currents were observed.
Functionalizing STM probes and substrates: The STM probes were etched from a 0.25 mm Pd wire (California Fine Wires) by an AC electrochemical etching method, and then insulated with high-density polyethylene, leaving an open apex of a few tens of nanometers in diameter. Before use, the probes were tested in 1 mM phosphate buffer (pH=7.4) at 0.5 V bias to ensure that the leakage current was <1 pA. For functionalization, the probe was gently cleaned using ethanol and water, respectively, and then dried with nitrogen flow. The probe was immersed in a 0.5 mg/mL peptide solution for ˜20 h. After that, the probe was taken out, rinsed with water, dried with nitrogen gas, and used immediately. Palladium substrates were prepared by depositing a 100 nm palladium film onto a 10 nm titanium adhesion layer coated onto a 750 μm thick silicon wafer using an electron-beam evaporator (Lesker PVD 75). The substrate was annealed with a hydrogen flame immediately before being functionalized by the same method as that for probe. Fourier transform infrared (FTIR) spectroscopy was used to characterize the functionalization. Pd substrates were also treated by UV- Ozone cleaner and H2 gas reduction (to remove PdO).
STM Measurements: Break junction measurements were carried out with a PicoSPM scanning probe microscope (Agilent Technologies). The Teflon liquid cells were cleaned in Piranha solution and then sonicated in Milli-Q water three times (Note that: the Piranha is highly corrosive and must be handled with extreme care). The current set point was 4 pA. Different sample bias was applied to the substrate as required. For better surface charge control, an Ag/AgCl with a salt bridge (10 mM KCl) was connected to the substrate. […]

cyclic RGD peptide [2] = assay: Tunnel junction device functionalized with cyclic RGD peptide, gap 3.5 to 4 nm, current vs time; type: binding; details: for signal on flowing solution over junction: X=0.1 μm junction, 10 pM α4β1 for several minutes, then 10 fM αVβ3
Description: FIG. 7 illustrates a cross-sectional view of a tunnel junction edge (i.e., the edge of an opening) of the device according to some embodiments of the present disclosure which includes a first metal electrode 71 (e.g., palladium, gold and/or platinum) onto which is deposited a layer of an insulating dielectric such as alumina 72 (for example). A second metal electrode 73 is then deposited, typically using one of the metals used for the first electrode. In some embodiments (not shown), the first electrode 71 and the second electrode 73 A cut is then made in the structure to expose the edge of these layers (fabrication of this type of device is described in detail in co-pending, published WO2015/161119, and also in Pang, Ashcroft et al. 2014) to form the opening/nanopore 78, shown here as a plane adjacent to the electrodes 71, 73. Accordingly, the first electrode 71 and the second electrode 73 can have an opening formed therethrough such as, for example, a nanopore. Said another way, the first electrode 71 and the second electrode 73 can be said to be arranged within or adjacent to an opening, or have a nanopore formed therethrough.
Specifically, for example, the insulating layer 72 is deposited with a thickness d that is chosen to be greater than the longest linear dimension of the recognition molecules 74 (L1, referred to as its effective length). However, according to some embodiments, it is chosen to be less than the combined overall length of the largest dimension of a target molecule 75 (L2, also referred to as its effective length) bound to the recognition molecule 74 (L1+L2). In the case of the integrin-RGD pair (FIGS. 3 and 4) the RGD molecule is about 1 nm at its longest, while the integrin is 9 nm, for a total of about 10 nm. […] However, a large particle that fluctuates into a highly conductive state could be used to mediate current flow (Vattay, Salahub et al. 2015). In some embodiments, the gap need only be made substantially larger than twice the largest dimension of the recognition molecules (i.e., >2L1). Thus, for example, if a recognition molecule is 1 nm at its longest dimension, then the gap is configured to be greater than 2 nm, preferably by about 10%, to accommodate variations in the junction geometry (larger than 2.2 nm in this example). In some embodiments, a gap size can be from the noted minimum up to the size of one recognition molecule plus the size of the target protein. For example, if the largest dimension of the protein is 9 nm, then the gap in this case can be as big 9 nm plus the size of one of the recognition molecules (1 nm in this example), thus, a gap of 10 nm.
However, when the junctions are exposed to the target protein (αvβ3 integrin) signals appear immediately. […] A clear signal is immediately generated which includes two (2) features as marked: a background current (of about 0.5 nA in this case) and noise spikes of 0.5 to 1 nA superimposed on top.

[3] = Bias 0.1 V, Reference Ag/AgCl (0V)
[4] = Bias 0.2 V, Reference Ag/AgCl (0V)
[5] = Bias 0.5 V, Reference Ag/AgCl (0V)
[6] = Bias 0.5 V, Reference None (substrate floating)
[7] = many current points, at distances Z0+ΔZ>3 nm

| Substance | event frequency, of all retractions (cyclic RGD peptide [1]) [%] | fraction of events that overflowed the current limit of the amplifier (11 nA) (cyclic RGD peptide [1]; [3]) | fraction of retractions that showed large current events (cyclic RGD peptide [1]; [3]) | fraction of events that overflowed the current limit of the amplifier (11 nA) (cyclic RGD peptide [1]; Bias 0.1 V, Reference None) | fraction of retractions that showed large current events (cyclic RGD peptide [1]; Bias 0.1 V, Reference None) | fraction of events that overflowed the current limit of the amplifier (11 nA) (cyclic RGD peptide [1]; [4]) | fraction of retractions that showed large current events (cyclic RGD peptide [1]; [4]) | fraction of events that overflowed the current limit of the amplifier (11 nA) (cyclic RGD peptide [1]; Bias 0.2 V, Reference None) | fraction of retractions that showed large current events (cyclic RGD peptide [1]; Bias 0.2 V, Reference None) | fraction of events that overflowed the current limit of the amplifier (11 nA) (cyclic RGD peptide [1]; [5]) | fraction of retractions that showed large current events (cyclic RGD peptide [1]; [5]) | fraction of events that overflowed the current limit of the amplifier (11 nA) (cyclic RGD peptide [1]; [6]) | fraction of retractions that showed large current events (cyclic RGD peptide [1]; [6]) | conductance (cyclic RGD peptide [1]; [7]) [nS] | peak current (cyclic RGD peptide [1]; [7]) | background current (cyclic RGD peptide [2]; 1 pM in 1 mM phosphate buffer pH 7.0) | signal on flowing solution over junction (cyclic RGD peptide [2]) | change of background current (cyclic RGD peptide [2]; on increasing concentration to 10 pM) | background current (cyclic RGD peptide [2]; 10 pM and 100 pM solutions) |
| --- | --- | --- | --- | --- | --- | --- | --- | --- | --- | --- | --- | --- | --- | --- | --- | --- | --- | --- | --- |
| αvβ3: ~200 kD αVβ3 extracelluar domain of human integrin, target protein bound by cyclic RGD peptide | 25 | 0 | 0.07 | 0 | 0.06 | 0.01 | 0.32 | 0.03 | 0.26 | 0.2 | 0.58 | 0.09 | 0.56 | > 0.5 | exceed 0.1 nA | about 0.5 nA | a large signal appeared after a few minutes | increases by nearly an order of magnitude |  |
| α4β1: homologous, weakly-binding integrin protein used as a control | 12 |  | 0.01 |  | 0 | 0 | 0.15 | 0 | 0.12 | 0.01 | 0.3 | 0 | 0.24 |  |  |  | no signal being produced |  | no background current |
